The target in test [1] is T1, CFTR ΔF508 (Homo sapiens, UniProt P13569, DEL508-508).
T1 construct: bronchial epithelial cells isolated from CF patients homozygous for the CFTR ΔF508 mutation; McGill University; Asterand; University of North Carolina hAEC-CF; host or cells: primary human bronchial epithelial cells from CF patients homozygous for ΔF508, differentiated at air-liquid interface
Description: Acute TECC assay, primary bronchial epithelial cells of CF patients homozygous for CFTR ΔF508, with and without co-corrector. As to conditions: 24 h, Ieq based on maximum current, normalized to DMSO and positive control; for % Activity at 3 μM (Ieq*): 3 μM compound. The format is cell-based. The procedure:
Primary Bronchial Epithelial Cells Protocol
The TECC (Tranepithelial Clamp Circuit, EP-design) assay measures the functionality of the cystic fibrosis Transmembrane Conductance regulator (CFTR) by measuring the short circuit current (Isc) generated over the basolateral and apical membrane of lung epithelial cells. In TECC the transepithelial potential PD and transepithelial resistance (Rt) are measured in an open circuit and transformed to Ieq using Ohm's law. 24 Wells can be measured simultaneously allowing a higher throughput compared to Ussing chambers.
For this purpose, bronchial epithelial cells isolated from CF patients homozygous for the CFTR ΔF508 mutation (hAEC-CF, Epithelix, Geneva, Switzerland; McGill University, Montreal, Qc; Asterand, Detroit, Mich.; University of North Carolina, Chapel Hill, N.C.) are plated on type IV collagen-coated Transwell® supports (Costar). Human airway epithelia are generated by provision of an air-liquid interface for 21 days to form well-differentiated polarized cultures that resemble in vivo pseudo-stratified ciliated epithelium (Fulcher, M. L., Gabriel, S., Burns, K. A., Yankaskas, J. R., Randell, S. H., 2005. Well-differentiated human airway epithelial cell cultures. Methods Mol. Med. 107, 183-206). The differentiated cells are treated with test corrector compound(s) (corrector alone or in combination with co-corrector, 4-[(2R,4R)-4-({[1-(2,2-difluoro-1,3-benzodioxol-5-yl)cyclopropyl]carbonyl}amino)-7-methoxy-3,4-dihydro-2H-chromen-2-yl]benzoic acid (“acute”) or test corrector compounds, co-corrector and potentiator, N-(3-carbamoyl-5,5,7,7-tetramethyl-4,7-dihydro-5H-thieno[2,3-c]pyran-2-yl)-1H-pyrazole-5-carboxamide (“chronic”) for 24 hours basolaterally to allow sufficient expression of properly folded CFTR protein on the membrane. All compound plates contained negative controls (DMSO) and positive controls (0.15 μM, 4-[(2R,4R)-4-({[1-(2,2-difluoro-1,3-benzodioxol-5-yl)cyclopropyl]carbonyl}amino)-7-(difluoromethoxy)-3,4-dihydro-2H-chromen-2-yl]benzoic acid).
For electrophysiological recording of the “acute” experiments, the human airway epithelia are mounted in the TECC heating plate and kept at 37° C. The epithelia are bathed in a NaCl-Ringer solution (120 mM NaCl, 25 mM NaHCO3, 1.2 mM CaCl2, 1.2 mM MgCl2, 0.8 mM KH2PO4, 0.8 mM K2HPO4, pH 7.4, 5 mM glucose) on both the basolateral and apical sides. Apical amiloride is used to inhibit the endogenous epithelial sodium channel (ENaC) currents while forskolin is applied on both apical and basolateral side to stimulate CFTR. CFTR activity is measured by addition of forskolin followed by addition of a potentiator, N-(3-carbamoyl-5,5,7,7-tetramethyl-4,7-dihydro-5H-thieno[2,3-c]pyran-2-yl)-1H-pyrazole-5-carboxamide, on both sides. The potentiator, 3-amino-N-[(2S)-2-hydroxypropyl]-5-{[4-(trifluoromethoxy)phenyl]sulfonyl}pyridine-2-carboxamide, was used in place of N-(3-carbamoyl-5,5,7,7-tetramethyl-4,7-dihydro-5H-thieno[2,3-c]pyran-2-yl)-1H-pyrazole-5-carboxamide in some assays. Measurements are done during a 20 minute timeframe with recordings every 2 minutes. […] Inhibitor-172, an inhibitor specific for CFTR, is used to test the specificity of the tested compounds. Raw data were normalized to percentage activity values using the equation: 100×(Sample−Negative control)/(Positive control−Negative Control).

Test [2] addresses T1, CFTR ΔF508. Description: Chronic TECC assay, primary bronchial epithelial cells of CF patients homozygous for CFTR ΔF508 (corrector, co-corrector and potentiator). The class given is cell-based. As to conditions: chronic TECC, Ieq = calculations based on the maximum current. An outline of the steps: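 Primary bronchial epithelial cells from ΔF508-homozygous CF patients on collagen IV-coated Transwells were chronically treated with test compound plus corrector and potentiator, which were re-added before recording. Ieq was derived from PD and Rt in NaCl-Ringer, pH 7.4, at 37° C, with apical amiloride and bilateral forskolin, recorded every 2 min over 20 min. Ieq increase was normalized to controls, and EC50 was taken from per-well concentrations.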

Each structure is given as a SMILES string. Where only a bound is given, the exact number is not on record here.

T1 sequence (P13569 with tags, fused parts or gaps DEL508-508): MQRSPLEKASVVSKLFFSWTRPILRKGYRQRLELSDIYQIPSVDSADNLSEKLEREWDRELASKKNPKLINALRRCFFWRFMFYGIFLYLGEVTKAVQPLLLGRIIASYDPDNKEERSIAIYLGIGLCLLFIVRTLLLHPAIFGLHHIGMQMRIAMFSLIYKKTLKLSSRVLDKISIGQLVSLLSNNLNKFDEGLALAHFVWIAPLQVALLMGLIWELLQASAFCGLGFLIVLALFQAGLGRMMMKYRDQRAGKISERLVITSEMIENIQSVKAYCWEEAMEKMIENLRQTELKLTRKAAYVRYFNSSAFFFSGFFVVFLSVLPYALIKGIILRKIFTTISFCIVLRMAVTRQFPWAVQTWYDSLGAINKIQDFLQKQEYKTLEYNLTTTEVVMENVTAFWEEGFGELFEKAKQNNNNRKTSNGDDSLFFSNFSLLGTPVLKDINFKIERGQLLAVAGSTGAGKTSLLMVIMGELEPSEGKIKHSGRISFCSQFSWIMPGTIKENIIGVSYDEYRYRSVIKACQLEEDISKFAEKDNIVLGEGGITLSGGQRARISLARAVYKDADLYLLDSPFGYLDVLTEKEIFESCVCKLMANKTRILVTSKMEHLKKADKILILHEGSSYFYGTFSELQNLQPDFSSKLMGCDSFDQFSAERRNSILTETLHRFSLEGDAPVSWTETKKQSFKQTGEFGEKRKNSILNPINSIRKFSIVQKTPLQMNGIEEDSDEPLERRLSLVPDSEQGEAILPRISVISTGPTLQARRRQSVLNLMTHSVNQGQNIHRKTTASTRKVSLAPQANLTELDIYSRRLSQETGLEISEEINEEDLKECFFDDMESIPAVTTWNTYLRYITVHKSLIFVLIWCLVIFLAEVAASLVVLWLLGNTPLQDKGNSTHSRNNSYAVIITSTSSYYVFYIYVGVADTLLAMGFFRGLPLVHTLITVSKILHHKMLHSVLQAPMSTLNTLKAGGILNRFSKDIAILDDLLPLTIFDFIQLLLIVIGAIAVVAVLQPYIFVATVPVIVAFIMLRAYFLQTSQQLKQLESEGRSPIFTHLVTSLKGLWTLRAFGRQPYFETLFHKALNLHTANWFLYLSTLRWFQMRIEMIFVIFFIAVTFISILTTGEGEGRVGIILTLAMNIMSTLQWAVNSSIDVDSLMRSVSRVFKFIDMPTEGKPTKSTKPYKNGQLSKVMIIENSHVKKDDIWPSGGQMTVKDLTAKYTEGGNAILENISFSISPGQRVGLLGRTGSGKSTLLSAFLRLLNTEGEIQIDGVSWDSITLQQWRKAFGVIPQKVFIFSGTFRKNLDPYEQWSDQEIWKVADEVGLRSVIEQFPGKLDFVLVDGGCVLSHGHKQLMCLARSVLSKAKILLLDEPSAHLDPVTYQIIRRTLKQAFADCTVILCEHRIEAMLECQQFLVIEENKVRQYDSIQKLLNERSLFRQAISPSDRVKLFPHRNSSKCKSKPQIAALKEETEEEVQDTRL

Turning to `CC(C)c1nn(-c2cccc(N3CCC3)c2)c2nc(C(=O)NS(C)(=O)=O)cc(-c3ccc(N4CCOCC4)cc3)c12` [Compound 10, 1-[3-(azetidin-1-yl)phenyl]-N-(methanesulfonyl)-4-[4-(morpholin-4-yl)phenyl]-3-(propan-2-yl)-1H-pyrazolo[3,4-b]pyridine-6-carboxamide], on CFTR ΔF508 [1] (without co-corrector), the “% Activity at 3 μM (Ieq*)” value is 591.84%. In the case of `CC(C)c1nn(C2CCCCC2)c2nc(C(=O)NS(C)(=O)=O)cc(-c3cnc(N4CCOCC4)nc3)c12` [Compound 11, 1-cyclohexyl-N-(methanesulfonyl)-4-[2-(morpholin-4-yl)pyrimidin-5-yl]-3-(propan-2-yl)-1H-pyrazolo[3,4-b]pyridine-6-carboxamide], the “% Activity at 3 μM (Ieq*)” value on CFTR ΔF508 [1] (without co-corrector) was found to be 351%. `Cc1nn(-c2ccccc2)c2nc(C(=O)NS(C)(=O)=O)cc(N3CCCCC3)c12` [Compound 13, N-(methanesulfonyl)-3-methyl-1-phenyl-4-(piperidin-1-yl)-1H-pyrazolo[3,4-b]pyridine-6-carboxamide]: at CFTR ΔF508 [1] (without co-corrector), the “% Activity at 3 μM (Ieq*)” value is 74.32%. On CFTR ΔF508 [1] (10 μM compound, without co-corrector), the “% Activity at 10 μM (Ieq*)” value is 174.53%. Turning to `CS(=O)(=O)NC(=O)c1cc(-c2ccc(N3CCC(C#N)CC3)nc2)c2c(C3CCC3)nn(C3CCCCC3)c2n1` [Compound 104, 4-[6-(4-cyanopiperidin-1-yl)pyridin-3-yl]-3-cyclobutyl-1-cyclohexyl-N-(methanesulfonyl)-1H-pyrazolo[3,4-b]pyridine-6-carboxamide], on CFTR ΔF508 [1] (3 μM compound with co-corrector), the “% Activity at 3 μM with co-corrector (Ieq*)” value is 102.36%. Besides, the EC50 (as a rule, the concentration needed to bring the measured effect to its halfway point) on CFTR ΔF508 [2] (read-out: EC50 (nM) (Ieq*)) was below 30 nM. Further, the “% Activity at 1 μM (Ieq*)” value at CFTR ΔF508 [2] (test compound at 1 μM) is reported as 720%.

Source of the values: patent publication US10259810B2, “N-sulfonylated pyrazolo[3,4-b]pyridin-6-carboxamides and method of use” (AbbVie S.à.r.l., priority 2015, dated 2019).
